Assay [1] has as its target T1, AtSgpp (MBP-AtSgpp) (Arabidopsis thaliana, UniProt Q9ZVJ5).
T1 construct: gene SGPP; full-length coding region (735 bp EcoRI/SalI fragment) in pMAL-c2x; N-terminal MBP fusion kept, vector residues Ile-Ser-Glu-Phe before Met1; expressed in E. coli TB1 with pSBETa; amylose resin
T1 sequence (Q9ZVJ5 1-244): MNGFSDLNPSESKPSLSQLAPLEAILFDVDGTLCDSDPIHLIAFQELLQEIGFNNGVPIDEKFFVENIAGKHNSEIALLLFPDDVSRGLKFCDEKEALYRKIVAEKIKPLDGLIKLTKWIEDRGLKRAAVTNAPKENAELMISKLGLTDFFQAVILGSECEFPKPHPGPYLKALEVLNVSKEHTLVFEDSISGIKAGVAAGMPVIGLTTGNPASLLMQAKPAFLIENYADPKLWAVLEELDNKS
The experiment in a line: phosphate release, molybdate/ascorbic acid assay, Lineweaver-Burk. The following applies: 20 mM Tris-HCl pH 7.0, 5 mM MgCl2, 32 °C, MBP fusion, brackets: 95% CI and [SD]. The format is biochemical. The source says:
(§1) phosphate release, molybdate/ascorbic acid assay, Lineweaver-Burk on AtSgpp (MBP-AtSgpp)

Assay [2] concerns the target T2, AtSgpp (MBP-AtSgpp) (Arabidopsis thaliana, UniProt Q9ZVJ5, DEL53-55).
T2 construct: gene SGPP; full-length coding region (735 bp EcoRI/SalI fragment) in pMAL-c2x; N-terminal MBP fusion kept, vector residues Ile-Ser-Glu-Phe before Met1; expressed in E. coli TB1 with pSBETa; amylose resin
T2 sequence (Q9ZVJ5 with tags, fused parts or gaps DEL53-55): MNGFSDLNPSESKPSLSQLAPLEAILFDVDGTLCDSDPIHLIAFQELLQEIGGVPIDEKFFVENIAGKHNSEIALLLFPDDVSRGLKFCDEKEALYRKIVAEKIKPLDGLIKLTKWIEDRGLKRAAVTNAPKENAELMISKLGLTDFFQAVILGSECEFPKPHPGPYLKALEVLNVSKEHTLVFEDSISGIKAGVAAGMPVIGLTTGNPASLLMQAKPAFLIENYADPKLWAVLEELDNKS
Described as above. The following applies: 20 mM Tris-HCl pH 7.0, 5 mM MgCl2, 32 °C, MBP fusion, brackets: 95% CI and [SD]. The format is biochemical.
Text: as §1

Structures are written as SMILES.

For the compound `O=P(O)(O)OC[C@H]1OC(O)[C@H](O)[C@@H]1O` (stereo partly drawn) [D-ribose-5-phosphate], the “apparent Km” value at AtSgpp (MBP-AtSgpp) [1] is 3.6 (3.5–3.7) × 10^−3 [0.1] M; at AtSgpp (MBP-AtSgpp) [2], 3.7 (3.5–3.9) × 10^−3 [0.2] M.
Taken in the same sequence, the figures for `O=P(O)(O)OC[C@H]1OC(O)[C@@H](O)[C@@H](O)[C@@H]1O` (stereo partly drawn) [D-mannose-6-phosphate] were 4.9 (4.2–5.6) × 10^−3 [0.6] M and 6.7 (6.6–6.8) × 10^−3 [0.1] M.
For `O=P(O)(O)OC[C@H]1OC(O)[C@H](O)[C@@H](O)[C@@H]1O` (stereo partly drawn) [D-glucose-6-phosphate], the figures for the “apparent Km” value at AtSgpp (MBP-AtSgpp) [1] and at AtSgpp (MBP-AtSgpp) [2] were 7.1 (6.8–7.4) × 10^−3 [0.3] M and 8.3 (8–8.6) × 10^−3 [0.3] M, respectively.
Taken in the same sequence, the figures for `O=P(O)(O)OC[C@H]1OC(O)C[C@@H](O)[C@@H]1O` (stereo partly drawn) [2-deoxy-D-glucose-6-phosphate] were 4.6 (4–5.2) × 10^−3 [0.5] M and 4.7 (4.5–4.9) × 10^−3 [0.2] M.
The like results for `O=P(O)(O)OC[C@H]1OC(O)(CO)[C@@H](O)[C@@H]1O` (stereo partly drawn) [D-fructose-6-phosphate] were, in that order, 7.7 (7.3–8.1) × 10^−3 [0.4] M and 10 (9.5–10.5) × 10^−3 [0.4] M.
Taken in the same sequence, the figures for `O=P(O)(O)OCC(O)CO` (racemic) [DL-glycerol-3-phosphate] were 7.3 (7.1–7.5) × 10^−3 [0.2] M and 14 (13.7–14.3) × 10^−3 [0.3] M.

For the origin of these results see article PMC6956230, “Sequence Determinants of Substrate Ambiguity in a HAD Phosphosugar Phosphatase of Arabidopsis Thaliana” (Biology, 2019).
